The results in this text go back to patent publication US20250270224A1, “POLYCYCLIC POLY(ADP-RIBOSE) POLYMERASE SELECTIVE INHIBITOR” (XUANZHU BIOPHARMACEUTICAL CO., LTD., priority 2022, published 2025).

One assay addresses PARP2 (Homo sapiens (Human), UniProt Q9UGN5). Put plainly: In-vitro enzymatic activity, PARP2 (histone-coated plate, chemiluminescence detection). In kind it is biochemical. The conditions noted are these: class symbols.
The next assay deals with MDA-MB-436 cells. Put plainly: In-vitro cytological inhibitory activity (CelltiterGlo assay), 7 days culture. The class given is cell-based. The conditions noted are these: BRCA1 mutated human breast cancer cells, CTG. The procedure: The MDA-MB-436 cells were adherent cells, and the culture solution was DMEM+10% FBS+1% ITS-G+16 μg/ml glutathione.
Cells in the logarithmic growth phase were collected and counted by a […]. The cell viability was detected by a trypan blue exclusion method, and the cell viability was kept over 90%. The cell concentration was adjusted to be in a proper range, and 90 μL of cell suspension was added into a 96-well plate respectively.
The stock solutions of the test compounds were diluted by 10 times from 10 mM to 1 mM with DMSO, and then continuously gradiently diluted by 3 times with DMSO into a total of 9 concentrations.
10 μL of compound working stock solution was added into each well in a 96-well plate inoculated with cells (diluted by 10 times, the final concentration of DMSO was 0.1%).
Solvent control: 0.1% DMSO (2 μL of DMSO was diluted with 198 μL of culture solution, and then 10 μL of the diluted solution was added into the well plate).
Blank control: the 96-well plate was detected and read 0 hour after the addition.
2.5 the 96-Well Plate was Placed in a 5% CO2 Cell Incubator at 37° C. To Culture for 7 Days
A CTG reagent was thawed and the 96-well plate was equilibrated to room temperature for 30 minutes, 60 μL of reagent (Celltiter Glo assay kit) was added into each well and shaken by a shaker for 2 minutes to mix uniformly (in the dark), and the mixture was incubated at room temperature for 20 minutes (in the dark). Light signal values were read by a multi-functional microplate reader.

The target in the next assay is PARP1 (Homo sapiens (Human), UniProt P09874). Put plainly: In-vitro enzymatic activity, PARP1 (histone-coated plate, chemiluminescence detection). The class given is biochemical. The conditions noted are these: class symbols.

A value given as a limit tells only on which side of the number the result lay.

PARP2, sequence (Q9UGN5 whole entry): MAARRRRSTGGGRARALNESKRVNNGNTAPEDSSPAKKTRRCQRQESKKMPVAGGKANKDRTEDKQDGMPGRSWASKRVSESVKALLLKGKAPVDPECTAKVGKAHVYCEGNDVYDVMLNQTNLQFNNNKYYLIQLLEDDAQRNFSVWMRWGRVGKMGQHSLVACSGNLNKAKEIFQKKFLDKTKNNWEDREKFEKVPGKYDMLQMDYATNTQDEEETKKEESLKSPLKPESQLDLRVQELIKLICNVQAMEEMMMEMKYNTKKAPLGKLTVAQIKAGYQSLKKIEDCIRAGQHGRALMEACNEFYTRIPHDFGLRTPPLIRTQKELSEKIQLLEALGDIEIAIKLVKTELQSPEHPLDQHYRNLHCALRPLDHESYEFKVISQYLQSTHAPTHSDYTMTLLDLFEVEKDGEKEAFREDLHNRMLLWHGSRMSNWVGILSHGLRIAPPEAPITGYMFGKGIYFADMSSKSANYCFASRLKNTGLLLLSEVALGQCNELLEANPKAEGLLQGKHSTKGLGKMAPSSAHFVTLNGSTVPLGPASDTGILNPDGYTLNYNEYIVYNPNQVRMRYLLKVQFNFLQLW
PARP1, sequence (P09874 whole entry): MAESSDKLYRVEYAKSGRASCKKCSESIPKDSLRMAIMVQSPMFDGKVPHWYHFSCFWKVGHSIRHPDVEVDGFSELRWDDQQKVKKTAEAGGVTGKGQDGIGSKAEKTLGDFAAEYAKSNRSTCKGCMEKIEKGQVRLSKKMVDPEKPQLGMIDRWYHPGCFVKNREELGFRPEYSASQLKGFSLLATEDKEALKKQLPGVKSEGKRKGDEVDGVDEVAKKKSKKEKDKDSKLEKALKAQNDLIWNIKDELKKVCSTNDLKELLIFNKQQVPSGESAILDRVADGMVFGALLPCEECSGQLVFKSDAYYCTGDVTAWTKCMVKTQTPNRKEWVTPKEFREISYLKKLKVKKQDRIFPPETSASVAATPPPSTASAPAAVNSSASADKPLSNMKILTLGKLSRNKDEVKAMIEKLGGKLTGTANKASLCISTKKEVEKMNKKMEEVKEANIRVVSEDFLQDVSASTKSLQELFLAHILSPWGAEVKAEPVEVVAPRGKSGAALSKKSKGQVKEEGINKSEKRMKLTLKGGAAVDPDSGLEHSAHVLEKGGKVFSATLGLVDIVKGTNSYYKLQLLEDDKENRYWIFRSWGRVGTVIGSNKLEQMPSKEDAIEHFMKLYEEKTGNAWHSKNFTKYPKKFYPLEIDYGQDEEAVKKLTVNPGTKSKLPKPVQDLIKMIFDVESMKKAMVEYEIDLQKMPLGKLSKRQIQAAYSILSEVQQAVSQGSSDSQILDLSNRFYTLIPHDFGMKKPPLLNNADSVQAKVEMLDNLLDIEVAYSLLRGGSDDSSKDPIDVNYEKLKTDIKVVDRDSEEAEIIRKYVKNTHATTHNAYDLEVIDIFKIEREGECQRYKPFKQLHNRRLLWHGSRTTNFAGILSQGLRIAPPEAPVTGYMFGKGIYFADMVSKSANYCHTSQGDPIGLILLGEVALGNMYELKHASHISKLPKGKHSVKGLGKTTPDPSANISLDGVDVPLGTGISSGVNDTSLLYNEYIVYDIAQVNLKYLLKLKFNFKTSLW

On to “5-(4-((6,9-difluoro-3-methyl-2-oxo-2,3-dihydro-1H-pyrrolo[1,2,3-de]quinoxaline-8-yl)methyl)piperazine-1-yl)-6-fluoro-N-methylpyridine Formamide [Compound 38]”, for which the results for the IC50 against PARP2, with MDA-MB-436 cells and against PARP1 were 100 to 1000 nM, 15.2 nM and 1 to 3 nM, respectively.
`CNC(=O)c1ccc(N2CCN(Cc3cc4c5c(c(C)c(=O)[nH]c5c3F)CC4)CC2)c(F)n1` [Compound 6, 6-fluoro-5-(4-((8-fluoro-3-methyl-2-oxo-1,2,4,5-tetrahydrocyclopentyl[de]quinoline-7-yl)methyl)piperazine-1-yl)-N-methylpicolinamide] displayed an IC50 in the assay with MDA-MB-436 cells of 2 nM.
`CNC(=O)c1ccc(N2CCN(Cc3cc4c5c(cnn5CC(=O)N4)c3)CC2)c(F)n1` [Compound 8, 6-fluoro-N-methyl-5-(4-((2-oxo-2,3-dihydro-1H-pyrazolo[1,5,4-de]quinoxaline-8-yl)methyl)piperazine-1-yl)picolinamide]: the IC50 in the assay on MDA-MB-436 cells (MDA-MB-436, 168 h) was determined as 129 nM.
In turn, `CNC(=O)c1ccc(N2CCN(Cc3cc4c5c(ccn5CC(=O)N4)c3)CC2)c(F)n1` [Compound 11, 6-fluoro-N-methyl-5-(4-((2-oxo-2,3-dihydro-1H-pyrrolo[1,2,3-de]quinoxaline-8-yl)methyl)piperazine-1-yl)picolinamide] yielded an IC50 with MDA-MB-436 cells (MDA-MB-436, 168 h) of 21.5 nM.
With `CNC(=O)c1ccc(N2CCN(Cc3cc4c5c(c(C)c(=O)[nH]c5c3)CCC4)CC2)c(F)n1` [Compound 25, 6-fluoro-N-methyl-5-(4-((3-methyl-2-oxo-2,4,5,6-tetrahydro-1H-benzo[de]quinoline-8-yl)methyl)piperazine-1-yl)picolinamide], the IC50 is 10 to 100 nM on PARP2; 15.8 nM in the assay with MDA-MB-436 cells (MDA-MB-436, 168 h); less than 1 nM at PARP1.
For the compound `CNC(=O)c1ccc(N2CCN(Cc3cc4c5c(c(C)c(=O)[nH]c5c3)CC4)CC2)c(F)n1` [Compound 31, 6-fluoro-N-methyl-5-(4-((3-methyl-2-oxo-1,2,4,5-tetrahydrocyclopentane[de]quinoline-7-yl)methyl)piperazine-1-yl)pyridine carboxamide], the IC50 at PARP2 is 10 to 100 nM; in the assay with MDA-MB-436 cells, 2.2 nM; against PARP1, less than 1 nM.
Regarding `CNC(=O)c1ccc(N2CCN(Cc3cc4cc(C)n5c4c(c3F)NC(=O)C5C)CC2)c(F)n1` (centres unmarked) [Compound 34, 6-fluoro-5-(4-((9-fluoro-3,5-dimethyl-2-oxo-2,3-dihydro-1H-pyrrolo[1,2,3-de]quinoxaline-8-yl)methyl)piperazine-1-yl)-N-methylpyridine formamide], the IC50 on PARP2 was 100 to 1000 nM; in the assay on MDA-MB-436 cells (MDA-MB-436, 168 h), 13.6 nM; at PARP1 it was 1 to 3 nM.
In turn, `CNC(=O)c1ccc(N2CCN(Cc3cc4ccn5c4c(c3F)NC(=O)[C@H]5C)CC2)c(F)n1` [Compound 36, (R)-6-fluoro-5-(4-((9-fluoro-3-methyl-2-oxo-2,3-dihydro-1H-pyrrolo[1,2,3-de]quinoxaline-8-yl)methyl)piperazine-1-yl)-N-methylpyridine formamide] yielded an IC50 with MDA-MB-436 cells (MDA-MB-436, 168 h) of 11.1 nM.
Regarding `CNC(=O)c1ccc(N2CCN(Cc3cc4c5c(ccn5C(C)(C)C(=O)N4)c3)CC2)c(F)n1` [Compound 46, 5-(4-((3,3-dimethyl-2-oxo-2,3-dihydro-1H-pyrrolo[1,2,3-de]quinoxaline-8-yl)methyl)piperazine-1-yl)-6-fluoro-N-methylpicolinamide], the IC50 at PARP2 is 100 to 1000 nM; with MDA-MB-436 cells (MDA-MB-436, 168 h), 9.2 nM; against PARP1 it was 3 to 10 nM.
As to `CNC(=O)c1ccc(N2CCN(Cc3cc4c5c(c3)c(F)nn5[C@@H](C)C(=O)N4)CC2)c(F)n1` [Compound 49-1, (S)-6-fluoro-5-(4-((6-fluoro-3-methyl-2-oxo-2,3-dihydro-1H-pyrazolo[1,5,4-de]quinoxaline-8-yl)methyl)piperazine-1-yl)-N-methylpicolinamide], the IC50 was 100 to 1000 nM at PARP2; 3.6 nM in the assay on MDA-MB-436 cells (MDA-MB-436, 168 h); 1 to 3 nM on PARP1.
In the same order, the values of `CNC(=O)c1ccc(N2CCN(Cc3cc4c5c(c3)c(F)nn5[C@H](C)C(=O)N4)CC2)c(F)n1` [Compound 49-2, (R)-6-fluoro-5-(4-((6-fluoro-3-methyl-2-oxo-2,3-dihydro-1H-pyrazolo[1,5,4-de]quinoxaline-8-yl)methyl)piperazine-1-yl)-N-methylpicolinamide] are 100 to 1000 nM, 2.9 nM and less than 1 nM.
Take “(S)-6-fluoro-5-(4-((9-fluoro-3-methyl-2-oxo-2,3-dihydro-1H-pyrrolo[1,2,3-de]quinoxaline-8-yl) methyl)piperazine-1-yl)-N-methylpyridine formamide [Compound 35]”: the IC50 in the assay on MDA-MB-436 cells turned out to be 46.5 nM.
